Drawing on patent US20050009894A1 (Aventis Pharma S.A., priority 2001, published 2005), this text covers IC50 for 29 compounds.

T1 sequence (P35968 786-1356 limits assumed): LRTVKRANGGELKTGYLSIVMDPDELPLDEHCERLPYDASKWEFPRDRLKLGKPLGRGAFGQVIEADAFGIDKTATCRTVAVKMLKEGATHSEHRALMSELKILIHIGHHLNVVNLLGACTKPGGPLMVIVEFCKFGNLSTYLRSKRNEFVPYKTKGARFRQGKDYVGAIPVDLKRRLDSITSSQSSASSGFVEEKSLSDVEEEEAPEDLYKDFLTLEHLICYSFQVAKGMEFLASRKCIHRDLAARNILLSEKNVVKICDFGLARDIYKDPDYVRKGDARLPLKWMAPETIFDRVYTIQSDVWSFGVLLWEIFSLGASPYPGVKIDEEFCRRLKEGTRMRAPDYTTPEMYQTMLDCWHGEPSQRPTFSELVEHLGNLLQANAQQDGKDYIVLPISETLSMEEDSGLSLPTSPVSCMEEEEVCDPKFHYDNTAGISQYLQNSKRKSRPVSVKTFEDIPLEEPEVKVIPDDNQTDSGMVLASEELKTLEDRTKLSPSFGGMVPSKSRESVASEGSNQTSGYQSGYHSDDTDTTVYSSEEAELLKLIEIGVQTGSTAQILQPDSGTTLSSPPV

This assay has as its target T1, human KDR enzyme (Homo sapiens, UniProt P35968).
T1 construct: The cytoplasmic domain of human KDR enzyme is cloned in the form of a GST fusion; GST; made in house; host or cells: SF21 insect cells (baculovirus, pFastBac)
In words: Phosphorylation of the substrate PLCγ by the enzyme KDR in vitro (flashplate technique). The assay is classed as biochemical. To be noted: Table VII, degrees of activity by IC50 range; read-out: Activity. The protocol:
The inhibitory effect of the compounds is determined in a test of phosphorylation of a substrate by the enzyme KDR in vitro by the flasplate technique (96-well plate, NEN). The cytoplasmic domain of human KDR enzyme is cloned in the form of a GST fusion into the baculovirus expression vector pFastBac. The protein is expressed in the SF21 cells and purified to about 60% homogeneity.
The kinase activity of KDR is measured in 20 mM MOPS, 10 mM MgCl2, 10 mM MnCl2, 1 mM DTT, 2.5 mM EGTA, 10 mM β-glycerophosphate, pH 7.2 in the presence of 10 mM MgCl2, 100 μM Na3VO4, 1 mM NaF. 10 μl of the compound are added to 70 μl of kinase buffer containing 100 ng of KDR enzyme at 4° C. The reaction is initiated by adding 20 μl of solution containing 2 μg of substrate (fragment SH2-SH3 of PLCγ expressed in the form of a GST fusion protein), 2 μCi γ33P[ATP] and 2 μM cold ATP. After incubating for 1 h at 37° C., the reaction is quenched by adding 1 volume (100 μl) of 200 mM EDTA. The incubation buffer is removed and the wells are washed three times with 300 μl of PBS. The radioactivity is measured in each well using a Top Count NXT instrument (Packard).
Background noise is determined by measuring the radio-activity in wells in quadruplet containing radioactive ATP and the substrate alone.
An activity control is measured in wells in quadruplet containing all the reagents (γ33P-[ATP], KDR and the substrate PLCγ) and in the absence of compound.
The inhibition of the KDR activity with the compound of the invention is expressed as a percentage of inhibition of the control activity determined in the absence of compound.
The compound SU5614 (Calbiochem) (1 μM) is included in each plate as inhibition control.
The IC50 values for the compounds are calculated by plotting the dose-response curves. The IC50 corresponds to the concentration of compound that induces a 50% inhibition of the kinase activity.
On to `NS(=O)(=O)c1ccc(CNC(=O)c2cccc3nc(-c4n[nH]c5ccccc45)[nH]c23)cc1` [Example 73, 2-(1H-Indazol-3-yl)-3H-benzoimidazole-4-carboxylic acid 4-sulfamoyl-benzylamide], for which the IC50 was 0.3 to 3 µM.
Take `CCOCCCNC(=O)c1cccc2nc(-c3n[nH]c4ccccc34)[nH]c12` [Example 74, 2-(1H-Indazol-3-yl)-3H-benzoimidazole-4-carboxylic acid (3-ethoxy-propyl)-amide]: the IC50 is more than 3 µM.
For `O=C(NCc1ccc(Br)cc1)c1cccc2nc(-c3n[nH]c4ccccc34)[nH]c12` [Example 75, 2-(1H-Indazol-3-yl)-3H-benzoimidazole-4-carboxylic acid 4-bromo-benzylamide], the IC50 was more than 3 µM.
With `O=C(NCc1cccc2ccccc12)c1cccc2nc(-c3n[nH]c4ccccc34)[nH]c12` [Example 76, 2-(1H-Indazol-3-yl)-3H-benzoimidazole-4-carboxylic acid (naphthalen-1-ylmethyl)-amide], the IC50 was more than 3 µM.
Take `O=C(NCc1cccs1)c1cccc2nc(-c3n[nH]c4ccccc34)[nH]c12` [Example 77, 2-(1H-Indazol-3-yl)-3H-benzoimidazole-4-carboxylic acid (thiophen-2-ylmethyl)-amide]: the IC50 is more than 3 µM.
On to `CN(C)c1ccc(CNC(=O)c2cccc3nc(-c4n[nH]c5ccccc45)[nH]c23)cc1` [Example 78, 2-(1H-Indazol-3-yl)-3H-benzoimidazole-4-carboxylic acid 4-dimethylamino-benzylamide], for which the IC50 was more than 3 µM.
In the case of `O=C(NCc1ccc([N+](=O)[O-])cc1)c1cccc2nc(-c3n[nH]c4ccccc34)[nH]c12` [Example 79, 2-(1H-Indazol-3-yl)-3H-benzoimidazole-4-carboxylic acid 4-nitro-benzylamide], the IC50 is more than 3 µM.
As to `O=C(NCc1cccnc1)c1cccc2nc(-c3n[nH]c4ccccc34)[nH]c12` [Example 80, 2-(1H-Indazol-3-yl)-3H-benzoimidazole-4-carboxylic acid (pyridin-3-ylmethyl)-amide], the IC50 was in the range of 0.3 to 3 µM.
For the compound `O=C(NCc1cccc(Br)c1)c1cccc2nc(-c3n[nH]c4ccccc34)[nH]c12` [Example 81, 2-(1H-Indazol-3-yl)-3H-benzoimidazole-4-carboxylic acid 3-bromo-benzylamide], the IC50 is more than 3 µM.
Take `COc1cccc(CNC(=O)c2cccc3nc(-c4n[nH]c5ccccc45)[nH]c23)c1` [Example 82, 2-(1H-Indazol-3-yl)-3H-benzoimidazole-4-carboxylic acid 3-methoxy-benzylamide]: the IC50 fell in the range of 0.3 to 3 µM.
The same measure for `O=C(NCc1csc2ccccc12)c1cccc2nc(-c3n[nH]c4ccccc34)[nH]c12` [Example 83, 2-(1H-Indazol-3-yl)-3H-benzoimidazole-4-carboxylic acid (benzo[b]thiophen-3-ylmethyl)-amide]: more than 3 µM; for `O=C(NCc1ccc(Oc2ccccc2)cc1)c1cccc2nc(-c3n[nH]c4ccccc34)[nH]c12` [Example 84, 2-(1H-Indazol-3-yl)-3H-benzoimidazole-4-carboxylic acid 4-phenoxy-benzylamide]: more than 3 µM.
For `O=C(NCc1cccc(OC(F)(F)F)c1)c1cccc2nc(-c3n[nH]c4ccccc34)[nH]c12` [Example 85, 2-(1H-Indazol-3-yl)-3H-benzoimidazole-4-carboxylic acid 3-trifluoromethoxy-benzylamide], the IC50 was more than 3 µM.
Turning to `O=C(NCc1ccc(Cl)nc1)c1cccc2nc(-c3n[nH]c4ccccc34)[nH]c12` [Example 86, 2-(1H-Indazol-3-yl)-3H-benzoimidazole-4-carboxylic acid (6-chloro-pyridin-3-ylmethyl)-amide], the IC50 was more than 3 µM.
For `O=C(NCc1ccc2c(c1)CCO2)c1cccc2nc(-c3n[nH]c4ccccc34)[nH]c12` [Example 87, 2-(1H-Indazol-3-yl)-3H-benzoimidazole-4-carboxylic acid (2,3-dihydro-benzofuran-5-ylmethyl)-amide], the IC50 was more than 3 µM.
Turning to `O=C(NCc1cccc(C(F)(F)F)c1)c1cccc2nc(-c3n[nH]c4ccccc34)[nH]c12` [Example 88, 2-(1H-Indazol-3-yl)-3H-benzoimidazole-4-carboxylic acid 3-trifluoromethyl-benzylamide], the IC50 is more than 3 µM.
Take `CSc1ccccc1CNC(=O)c1cccc2nc(-c3n[nH]c4ccccc34)[nH]c12` [Example 89, 2-(1H-Indazol-3-yl)-3H-benzoimidazole-4-carboxylic acid 2-methylsulfanyl-benzylamide]: the IC50 is less than 0.3 µM.
Consider `O=C(NCc1ccoc1)c1cccc2nc(-c3n[nH]c4ccccc34)[nH]c12` [Example 90, 2-(1H-Indazol-3-yl)-3H-benzoimidazole-4-carboxylic acid (furan-3-ylmethyl)-amide], for which the IC50 was 0.3 to 3 µM.
The same measure for `O=C(NCc1ccccc1[N+](=O)[O-])c1cccc2nc(-c3n[nH]c4ccccc34)[nH]c12` [Example 91, 2-(1H-Indazol-3-yl)-3H-benzoimidazole-4-carboxylic acid 2-nitro-benzylamide]: 0.3 to 3 µM; for `Cc1cc(C)cc(CNC(=O)c2cccc3nc(-c4n[nH]c5ccccc45)[nH]c23)c1` [Example 92, 2-(1H-Indazol-3-yl)-3H-benzoimidazole-4-carboxylic acid 3,5-dimethyl-benzylamide]: 0.3 to 3 µM; for `O=C(NCc1cccc(Cl)c1)c1cccc2nc(-c3n[nH]c4ccccc34)[nH]c12` [Example 93, 2-(1H-Indazol-3-yl)-3H-benzoimidazole-4-carboxylic acid 3-chloro-benzylamide]: more than 3 µM.
Consider `O=C(Nc1ccccc1)c1cccc2nc(-c3n[nH]c4ccccc34)[nH]c12` [Example 94, 2-(1H-Indazol-3-yl)-3H-benzoimidazole-4-carboxylic acid phenylamide], for which the IC50 lay in the range of 0.3 to 3 µM.
`O=C(NCc1ccccc1)c1cccc2nc(-c3n[nH]c4ccccc34)[nH]c12` [Example 95, 2-(1H-Indazol-3-yl)-3H-benzoimidazole-4-carboxylic acid benzylamide]: the IC50 was more than 3 µM.
Regarding `O=C(NCCc1ccccc1)c1cccc2nc(-c3n[nH]c4ccccc34)[nH]c12` [Example 96, 2-(1H-Indazol-3-yl)-3H-benzoimidazole-4-carboxylic acid phenethyl-amide], the IC50 was more than 3 µM.
Regarding `c1ccc(-c2ccc3nc(-c4[nH]nc5ccccc45)[nH]c3c2)cc1` [Example 97, 3-(6-Phenyl-1H-benzimidazol-2-yl)-2H-indazole], the IC50 is more than 3 µM.
With `Clc1ccc(-c2ccc3nc(-c4[nH]nc5ccccc45)[nH]c3c2)c(Cl)c1` [Example 98, 3-[6-(2,4-Dichloro-phenyl)-1H-benzoimidazol-2-yl]-2H-indazole], the IC50 is more than 3 µM.
In the case of `c1ccc2c(-c3ccc4nc(-c5[nH]nc6ccccc56)[nH]c4c3)cccc2c1` [Example 99, 3-(6-Naphthalen-1-yl-1H-benzoimidazol-2-yl)-2H-indazole], the IC50 is more than 3 µM.
Take `Fc1ccc(-c2ccc3nc(-c4[nH]nc5ccccc45)[nH]c3c2)cc1` [Example 100, 3-[6-(4-Fluoro-phenyl)-1H-benzoimidazol-2-yl]-2H-indazole]: the IC50 is 0.3 to 3 µM.
In the case of `Clc1ccc(-c2ccc3nc(-c4[nH]nc5ccccc45)[nH]c3c2)cc1` [Example 101, 3-[6-(4-Chloro-phenyl)-1H-benzoimidazol-2-yl]-2H-indazole], the IC50 is more than 3 µM.
